For assay [1] the following is noted: in words; literature; cited from earlier work.
For assay [2], the target named is T1, muscle-like nicotinic receptors (TE671/RD) (Homo sapiens, UniProt P02708+P07510+P11230+Q07001).
T1 construct: these cells express muscle-like nicotinic receptors; endogenous in cells; host or cells: TE671/RD (human embryonal rhabdomyosarcoma)
As to the kind of experiment: cell-based. The following applies: for Emax: TE671/RD, read-out: Muscle Effect (% nicotine).

In the next assay the target is nicotinic receptors. As to the kind of experiment: Determination of binding of compounds to relevant receptor sites (inhibition of L-[3H]nicotine binding, brain membrane preparations). Set-up: species or system rat (Sprague-Dawley).
For assay [3] the following is noted: in words; some patients; cited from earlier work.
The conditions of assay [4]: in words; literature; cited from earlier work. The source holds these as a separate data set.
The subject of assay [5] is IL-2; memory; neurotransmitter release in the CNS. Conditions: in words; literature; cited from earlier work.

Each structure is given as a SMILES string.

By Ki is commonly meant the dissociation constant of the complex between target and ligand, obtained from inhibition or displacement.

T1 sequence (P02708 21-457): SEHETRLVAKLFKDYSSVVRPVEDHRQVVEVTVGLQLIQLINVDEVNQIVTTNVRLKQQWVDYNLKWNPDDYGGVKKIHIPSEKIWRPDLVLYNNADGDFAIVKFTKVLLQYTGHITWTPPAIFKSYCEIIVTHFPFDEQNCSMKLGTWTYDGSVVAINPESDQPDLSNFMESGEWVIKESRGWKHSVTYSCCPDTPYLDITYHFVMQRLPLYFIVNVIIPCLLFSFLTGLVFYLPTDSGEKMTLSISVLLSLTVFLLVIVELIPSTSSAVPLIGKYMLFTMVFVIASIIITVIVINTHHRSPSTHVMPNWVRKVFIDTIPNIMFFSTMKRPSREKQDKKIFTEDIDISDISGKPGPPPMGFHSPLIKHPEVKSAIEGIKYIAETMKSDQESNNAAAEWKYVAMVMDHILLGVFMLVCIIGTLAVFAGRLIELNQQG
T1 sequence (Q07001 22-517): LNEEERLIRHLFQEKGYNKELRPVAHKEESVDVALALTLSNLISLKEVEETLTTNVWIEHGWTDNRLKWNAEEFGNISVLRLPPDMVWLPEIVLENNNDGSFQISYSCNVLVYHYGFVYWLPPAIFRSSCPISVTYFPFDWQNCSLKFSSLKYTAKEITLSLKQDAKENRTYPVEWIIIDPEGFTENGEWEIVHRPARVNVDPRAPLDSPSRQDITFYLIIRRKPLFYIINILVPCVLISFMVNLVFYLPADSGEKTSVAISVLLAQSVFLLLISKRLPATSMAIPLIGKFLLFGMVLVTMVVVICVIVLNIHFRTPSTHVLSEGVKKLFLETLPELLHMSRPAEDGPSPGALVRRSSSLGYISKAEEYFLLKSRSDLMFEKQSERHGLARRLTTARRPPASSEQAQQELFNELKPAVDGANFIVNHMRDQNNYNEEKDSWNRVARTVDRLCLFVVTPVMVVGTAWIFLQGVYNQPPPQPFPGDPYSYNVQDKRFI
T1 sequence (P07510 23-517): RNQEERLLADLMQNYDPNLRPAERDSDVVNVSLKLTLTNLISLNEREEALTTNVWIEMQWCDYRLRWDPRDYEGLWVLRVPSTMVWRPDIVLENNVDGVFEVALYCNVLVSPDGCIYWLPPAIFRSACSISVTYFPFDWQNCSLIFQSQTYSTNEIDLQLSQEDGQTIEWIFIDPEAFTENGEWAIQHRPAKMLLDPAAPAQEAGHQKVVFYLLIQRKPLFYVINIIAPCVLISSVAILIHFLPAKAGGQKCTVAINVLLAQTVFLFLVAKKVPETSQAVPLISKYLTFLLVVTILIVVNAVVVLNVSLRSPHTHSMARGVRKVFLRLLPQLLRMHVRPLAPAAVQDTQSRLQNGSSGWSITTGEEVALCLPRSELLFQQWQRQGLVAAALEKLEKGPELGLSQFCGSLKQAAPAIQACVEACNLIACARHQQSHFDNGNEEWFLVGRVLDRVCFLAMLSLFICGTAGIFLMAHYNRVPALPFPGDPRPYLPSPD
T1 sequence (P11230 24-501): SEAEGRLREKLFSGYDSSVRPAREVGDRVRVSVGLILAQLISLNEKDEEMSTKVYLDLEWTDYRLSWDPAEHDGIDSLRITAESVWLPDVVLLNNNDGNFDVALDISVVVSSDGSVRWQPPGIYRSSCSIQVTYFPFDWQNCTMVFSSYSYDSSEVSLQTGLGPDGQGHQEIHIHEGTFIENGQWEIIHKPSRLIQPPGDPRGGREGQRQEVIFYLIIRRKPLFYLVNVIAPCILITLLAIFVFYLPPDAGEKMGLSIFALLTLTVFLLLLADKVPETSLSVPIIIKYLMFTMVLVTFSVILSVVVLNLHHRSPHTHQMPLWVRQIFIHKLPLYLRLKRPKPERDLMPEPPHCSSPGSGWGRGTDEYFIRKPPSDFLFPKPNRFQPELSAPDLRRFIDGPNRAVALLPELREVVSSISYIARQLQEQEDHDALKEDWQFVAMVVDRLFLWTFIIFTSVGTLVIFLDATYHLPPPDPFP

As for `CN1CCC[C@H]1c1cccnc1` [C-1, (S)-(-)-nicotine], in assay [1], the “treatment of various CNS disorders” value is recorded as “positive effect towards the treatment of various CNS disorders”.

With `CNCC/C=C/c1cncnc1` [Sample No. 2, (E)-N-methyl-4-(5-pyrimidinyl)-3-butene-1-amine], the Emax in assay [2] was found to be 4%.

`COc1cncc(/C=C/CCN)c1` [Sample No. 3, (E)-4-[3-(5-methoxypyridin)yl]-3-butene-1-amine monofumarate]: the Emax in assay [2] was 0%.

`CNCCC#Cc1cccnc1` [Sample No. 4, N-Methyl-4-(3-pyridinyl)-3-butyne-1-amine]: in assay [2], the Emax came to 7%. The same molecule registered a Ki at nicotinic receptors of 0.058 µM.

Turning to `CNCC/C=C/c1ccc(C)nc1` [Sample No. 6, (E)-N-methyl-4-[3-(6-methylpyridin)yl]-3-butene-1-amine], the Emax in assay [2] is 2%.

Regarding `CNCCCCc1cccnc1` [Sample No. 7, N-methyl-(3-pyridinyl)-butane-1-amine], the Emax in assay [2] was found to be 0%.

As for `CNCC/C=C/c1cccnc1` [Sample No. 8, (E)-metanicotine], in assay [2] (te671/rd cells), the “Muscle Effect (% nicotine)” value is reported as 15 % nicotine.

On to `Nc1ccc(O)c(C(=O)O)c1` [mesalamine], for which the “effectiveness in treatment of acute UC” value in assay [3] is recorded as “effective to some degree in some patients”.

In the case of `CN1CCCC1c1cccnc1` (centres unmarked) [nicotine], the rectal blood flow result in assay [4] was “Positive effects”. Further, in assay [5], the effects upon memory result was “positive effects upon memory”, the “neurotransmitter release in the CNS” value is recorded as “induce neurotransmitter release in the CNS” and the “production of IL-2” value was “inhibit the production of IL-2”.

As to `O=C(O)c1cc(/N=N/c2ccc(S(=O)(=O)Nc3ccccn3)cc2)ccc1O` [sulfasalazine], the “effectiveness in treatment of acute UC” value in assay [3] is given as “effective to some degree in some patients”.

The values are drawn from patent US5604231A, “Pharmaceutical compositions for prevention and treatment of ulcerative colitis” (priority 1995, dated 1997).
